# Where two headings read alike, the source gives them in different places.
# Assays:
# [1] = biological target: recombinant human BACE-1 (Homo sapiens (Human), UniProt P56817); assay: Beta-secretase (BACE) inhibition assay, fluorogenic enzymatic assay; assay type: biochemical
# Method: Beta-Secretase (BACE) Inhibition Assay
# Inhibitory potency against β-secretase (BACE) was measured using an enzymatic assay with a fluorogenic readout. 50 nM of recombinant human BACE-1 (R&D Systems) and test compound at one of various concentrations were added to a reaction buffer containing 20 mM sodium acetate at pH 4.8, with 0.06% Triton X-100, and 1% DMSO. […] The total volume of the assay solution was 100 μL. […] The slopes of the progress curves were the measure of reaction rates. Reaction rates were plotted as a function of inhibitor concentration, and the data were fit with a four-parameter logistic fit using Graphpad PRISM software to yield IC50 values.
# [2] = system: HIV-1 (IIIB) in MT-4 cells; assay: microbe, parasite or virus in culture; assay type: cell-based
# [3] = Liver microsomal stability, human liver microsomes; conditions: human
# Method: Liver Microsomal Stability Protocol
# Test compounds and one control compound (verapamil) were tested in 3 different species in duplicate sets.
# Test compound concentration: 1 uM; Protein concentration: 0.5 mg/mL (for dog, rat, and human liver microsomes); Cofactor: NADPH-Regenerating system (NRS) solution; Time-points: 2, 12, 25, 45, and 65 minutes.
# Reaction Composition (in Each Incubation Well) Contains:
# At an incubation temperature of 37° C., the reaction was started with addition of NADPH Regeneration System, at each time point, 25 uL of the reaction mixture was removed and added to a plate with 225 uL quenching solution (50% MeOH, 25% ACN, 25% H2O, and 200 nM labetalol as internal standard). After plates were vortexed, they were centrifuged for 30 minutes to remove proteins. About 100 μL supernatant was removed to a new plate and diluted with 150 μL water. About 20 μL of the mixture was injected into LC/MS/MS system to monitor the compound's response. In vitro measured t1/2 was used to calculate Clint values.
# [4] = Human immunodeficiency virus 1, IIIB, MT4, MT-4 cells, HIV-1, read-out: MT4 EC50
# Sequence of recombinant human BACE-1 (P56817 46-501): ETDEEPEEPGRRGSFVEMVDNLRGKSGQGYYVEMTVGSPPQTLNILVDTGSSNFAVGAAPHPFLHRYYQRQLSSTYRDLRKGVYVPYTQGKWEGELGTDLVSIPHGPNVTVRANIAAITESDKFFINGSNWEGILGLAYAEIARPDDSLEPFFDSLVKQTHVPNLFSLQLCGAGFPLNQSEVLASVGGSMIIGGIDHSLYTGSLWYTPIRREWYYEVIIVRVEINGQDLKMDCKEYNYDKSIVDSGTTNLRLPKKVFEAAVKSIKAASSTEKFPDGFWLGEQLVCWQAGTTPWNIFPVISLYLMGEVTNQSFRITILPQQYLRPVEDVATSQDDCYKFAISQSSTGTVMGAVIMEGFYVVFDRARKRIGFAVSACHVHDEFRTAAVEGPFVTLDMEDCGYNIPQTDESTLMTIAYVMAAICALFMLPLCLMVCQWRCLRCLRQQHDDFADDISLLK
smiles,measurement,setting,value
CC(C)(C[C@]1(c2ccc(-c3cnn(C4CC4)n3)cc2)NC(=N)N([C@H](COC(=O)NC2(C(F)F)CC2)c2ccc(Cl)c(-n3ncnc3C(F)F)c2)C1=O)C(F)(F)F [Compound 271],IC50,[1],> 100000 nM
same,EC50,[2]; [4],12.6 nM
CC(C)(C)C[C@]1(c2ccc(-c3cnn(C(F)F)c3)cc2)NC(=N)N([C@H](COC(=O)NC(C)(C)C(F)F)c2ccc(Cl)c(-c3ncnn3C(F)F)c2)C1=O [Compound 90],IC50,[1],> 100000 nM
same,EC50,[2]; [4],12.2 nM
CC(C)(C)C[C@]1(c2ccc(-c3cnn(S(C)(=O)=O)c3)cc2F)NC(=N)N([C@H](COC(=O)NC2(C(F)(F)F)CC2)c2ccc(Cl)c(-n3ncnc3C(F)F)c2)C1=O [Compound 286],IC50,[1],> 100000 nM
same,EC50,[2]; [4],9.61 nM
CC(C)(C[C@]1(c2ccc(-c3cnn(C4CC4)n3)cc2)NC(=N)N([C@H](CNC(=O)CC(F)(F)F)c2ccc(Cl)c(-n3ncnc3C(F)F)c2)C1=O)C(F)(F)F [Compound 391],EC50,[2]; [4],12.5 nM
same,half-life at 1 uM,[3]; liver microsomes,≥ 6.58 h
CC(C)(C)C[C@]1(c2ccc(-c3cnn(C(F)F)c3)cc2)NC(=N)N([C@H](COC(=O)NC2(C(F)(F)F)CC2)c2ccc(Cl)c(-n3ncnc3C(F)F)c2)C1=O [Compound 177],IC50,[1],> 100000 nM
same,EC50,[2]; [4],9.81 nM
CC(C)(C)C[C@]1(c2ccc(-c3cnn(C(F)F)c3)c(F)c2)NC(=N)N([C@H](COC(=O)N[C@@H]2CC2(F)F)c2ccc(Cl)c(-n3ncnc3C(F)F)c2)C1=O [Compound 339],EC50,[2]; [4],9.09 nM
same,half-life at 1 uM,[3]; liver microsomes,≥ 6.58 h
CC(C)(C)C[C@]1(c2ccc(-c3cnn(C(F)F)c3)cc2)NC(=N)N([C@H](COC(=O)NC(C)(C)C(F)F)c2ccc(Cl)c(-c3ncn[nH]3)c2)C1=O [Compound 78],EC50,[2]; [4],74.9 nM
same,half-life at 1 uM,[3]; liver microsomes,≥ 6.58 h
CC(C)(C)C[C@]1(c2ccc(-c3cn[nH]n3)cc2)NC(=N)N([C@H](COC(=O)NC2(C(F)(F)F)CC2)c2ccc(Cl)c(-n3ncnc3C(F)F)c2)C1=O [Compound 372],EC50,[2]; [4],47.3 nM
same,half-life at 1 uM,[3]; liver microsomes,≥ 6.58 h
"CC(C)(C)C[C@]1(c2ccc(-c3cnn(C(F)F)c3)cc2)NC(=N)N([C@H](COC(=O)N[C@@H]2CC2(F)F)c2ccc(Cl)c(-n3ncnc3C(F)F)c2)C1=O (single isomer, unassigned) [Compound 335]",IC50,[1],> 100000 nM
same,EC50,"[2]; MT-4 cells, HIV-1, read-out: MT4 EC50",5.59 nM
CC(C)(C)C[C@]1(c2ccc(-c3cnn(C(F)F)c3)cc2)NC(=N)N([C@H](COC(=O)NC(C)(C)C(F)F)c2ccc(Cl)c(-c3nncn3C(F)F)c2)C1=O [Compound 91],EC50,[2]; [4],200 nM
same,half-life at 1 uM,[3]; liver microsomes,≥ 6.58 h
CC(C)(C)C[C@]1(c2ccc(-c3cnn(C(F)F)c3)cc2)NC(=N)N([C@H](COC(=O)NCC(F)(F)F)c2ccc(Cl)c(-n3ncnc3C(F)F)c2)C1=O [Compound 218],IC50,[1],> 100000 nM
same,EC50,[2]; [4],9.89 nM
CC(C)(C)C[C@]1(c2ccc3nc(C#Cc4ccccc4)ccc3c2)NC(=N)N([C@H](COC(=O)NC2(C(F)(F)F)CC2)c2ccc(Cl)c(-n3ncnc3C(F)F)c2)C1=O (stereo in doubt) [Compound 360],EC50,[2]; [4],79.9 nM
same,half-life at 1 uM,[3]; liver microsomes,≥ 6.58 h
CC(C)(C)C[C@]1(c2ccc(-c3cnn(C(F)F)c3)cc2)NC(=N)N([C@H](COC(=O)NC2(C(F)F)CC2)c2ccc(Cl)c(-n3ncnc3C(F)F)c2)C1=O [Compound 179],EC50,"[2]; Human immunodeficiency virus 1, IIIB, MT4, read-out: MT4 EC50 (nM)",9.37 nM
same,half-life at 1 uM,[3]; microsomes,≥ 6.58 h
CC(C)(C)C[C@]1(c2ccc(-c3cnn(C(F)F)c3)cc2)NC(=N)N([C@H](COC(=O)NC(C)(C)C(F)F)c2ccc(Cl)c(-c3nccn3C(F)F)c2)C1=O [Compound 89],EC50,[2]; [4],34.4 nM
same,half-life at 1 uM,[3]; liver microsomes,≥ 6.58 h
CC(C)(C)C[C@]1(c2ccc(-c3cnn(C(F)F)c3)cc2)NC(=N)N([C@H](COC(=O)NC2CC2)c2ccc(Cl)c(-c3nccc(=O)[nH]3)c2)[C@H]1O [Compound 17],EC50,[2]; [4],556 nM
same,half-life at 1 uM,[3]; liver microsomes,≥ 6.58 h
CC(C)(C[C@]1(c2ccc(-c3cnn(C4CC4)c3)cc2)NC(=N)N([C@H](COC(=O)NC2(C(F)(F)F)CC2)c2ccc(Cl)c(-c3ncnn3C(F)F)c2)C1=O)C(F)(F)F [Compound 135],EC50,[2]; [4],13.6 nM
same,half-life at 1 uM,[3]; liver microsomes,≥ 6.58 h
CC(C)(C)C[C@]1(c2ccc(-c3ncccn3)cc2)NC(=N)N([C@H](COC(=O)NC2(C(F)(F)F)CC2)c2ccc(Cl)c(-c3ncn[nH]3)c2)C1=O [Compound 105],EC50,[2]; [4],36.7 nM
same,half-life at 1 uM,[3]; liver microsomes,≥ 6.58 h
CC(C)(C)C[C@]1(c2ccc3nc(-c4cnn(C(F)F)c4)ccc3c2)NC(=N)N([C@H](COC(=O)NC2(C(F)(F)F)CC2)c2ccc(Cl)c(-n3ncnc3C(F)F)c2)C1=O [Compound 350],EC50,[2]; [4],8.9 nM
same,half-life at 1 uM,[3]; liver microsomes,≥ 6.58 h
CC(C)(F)C[C@]1(c2ccc(-c3cnn(C(F)F)c3)cc2)NC(=N)N([C@H](COC(=O)NC(C)(C)C(F)F)c2ccc(Cl)c(-c3ncnn3C(F)F)c2)C1=O [Compound 129],EC50,[2]; [4],27.3 nM
same,half-life at 1 uM,[3]; liver microsomes,≥ 6.58 h
CC(C)C[C@]1(c2ccc(-c3cnn(C(F)F)c3)cc2F)NC(=N)N([C@H](COC(=O)NC2(C(F)(F)F)CC2)c2ccc(Cl)c(-n3ncnc3C(F)F)c2)C1=O [Compound 278],EC50,[2]; [4],23.6 nM
same,half-life at 1 uM,[3]; liver microsomes,≥ 6.58 h
CC(C)(C)C[C@]1(c2ccc(-c3cccc(S(C)(=O)=O)c3)c(F)c2)NC(=N)N([C@H](COC(=O)NC2(C(F)(F)F)CC2)c2ccc(Cl)c(-n3ncnc3C(F)F)c2)C1=O [Compound 312],EC50,[2]; [4],27.8 nM
same,half-life at 1 uM,[3]; liver microsomes,≥ 6.58 h
CC(C)(C)C[C@]1(c2ccc(-c3cnn(C(F)F)c3)cc2)NC(=N)N([C@H](COC(=O)NC(C)(C)C(F)F)c2ccc(Cl)c(-n3ncnc3C(F)F)c2)C1=O [Compound 185],IC50,[1],> 100000 nM
same,EC50,[2]; [4],12.6 nM
CC(C)(C)C[C@]1(c2ccc(-c3cnn(C4CC4)n3)cc2F)NC(=N)N([C@H](COC(=O)NC2(C(F)(F)F)CC2)c2ccc(Cl)c(-n3ncnc3C(F)F)c2)C1=O [Compound 224],EC50,[2]; [4],19.5 nM
same,half-life at 1 uM,[3]; liver microsomes,≥ 6.58 h
CC(C)(C[C@]1(c2ccc(-c3cnn(C4CC4)n3)cc2)NC(=N)N([C@H](COC(=O)NC2(C(F)(F)F)CC2)c2ccc(Cl)c(-c3ncnn3C(F)F)c2)C1=O)C(F)F [Compound 154],EC50,[2]; [4],19.7 nM
same,half-life at 1 uM,[3]; liver microsomes,≥ 6.58 h
CC(C)(C)C[C@]1(c2ccc(-c3cnn(C4CC4)n3)cc2)NC(=N)N([C@H](CNS(=O)(=O)C2CC2)c2ccc(Cl)c(-n3ncnc3C(F)F)c2)C1=O [Compound 387],EC50,[2]; [4],47.9 nM
same,half-life at 1 uM,[3]; liver microsomes,≥ 6.58 h
CC(C)(C)C[C@]1(c2ccc(-c3cn(C4CC4)nn3)c(F)c2)NC(=N)N([C@H](COC(=O)NC2(C(F)(F)F)CC2)c2ccc(Cl)c(-n3ncnc3C(F)F)c2)C1=O [Compound 352],EC50,[2]; [4],10.9 nM
same,half-life at 1 uM,[3]; liver microsomes,≥ 6.58 h
CC(C)(C)C[C@]1(c2ccc(-c3cnn(C(F)F)c3)cc2F)NC(=N)N([C@H](COC(=O)NC2(C(F)(F)F)CC2)c2ccc(Cl)c(-c3ncn[nH]3)c2)C1=O [Compound 110],EC50,[2]; [4],96 nM
same,half-life at 1 uM,[3]; liver microsomes,≥ 6.58 h
C[C@H](NC(=O)OC[C@H](c1ccc(Cl)c(-c2ncnn2C(F)F)c1)N1C(=N)N[C@](CC(C)(C)C)(c2ccc(-c3cnn(C(F)F)n3)cc2)C1=O)C(F)(F)F [Compound 163],EC50,[2]; [4],9.06 nM
same,half-life at 1 uM,[3]; liver microsomes,≥ 6.58 h
CC(C)(C)C[C@]1(c2ccc(-n3cnnc3)cc2)NC(=N)N([C@H](COC(=O)NC2(C(F)(F)F)CC2)c2ccc(Cl)c(-n3ncnc3C(F)F)c2)C1=O [Compound 359],EC50,[2]; [4],424 nM
same,half-life at 1 uM,[3]; liver microsomes,≥ 6.58 h
"CC(C)(C)C[C@]1(c2ccc(-c3cnn(C(F)F)c3)cc2)NC(=N)N([C@H](COC(=O)N[C@@H]2CC2C(F)(F)F)c2ccc(Cl)c(-n3ncnc3C(F)F)c2)C1=O (single isomer, unassigned) [Compound 331]",EC50,[2]; [4],16.4 nM
same,half-life at 1 uM,[3]; liver microsomes,≥ 6.58 h
Cn1ccc(-c2ccc([C@@]3(CC(C)(C)C)NC(=N)N([C@H](COC(=O)NC4CC4(F)F)c4ccc(Cl)c(-n5ncnc5C(F)F)c4)C3=O)cc2F)n1 (stereo partly drawn) [Compound 295],EC50,[2]; [4],7.33 nM
same,half-life at 1 uM,[3]; liver microsomes,≥ 6.58 h
CC(C)(C)C[C@]1(c2ccc(-c3cnn(C4CC4)c3)cc2Cl)NC(=N)N([C@H](COC(=O)NC2(C(F)(F)F)CC2)c2ccc(Cl)c(-n3ncnc3C(F)F)c2)C1=O [Compound 317],EC50,[2]; [4],99.1 nM
same,half-life at 1 uM,[3]; liver microsomes,≥ 6.58 h
CC(C)(F)C[C@]1(c2ccc(-c3cnn(C(F)F)c3)cc2)NC(=N)N([C@H](COC(=O)NC2(C(F)(F)F)CC2)c2ccc(Cl)c(-c3ncnn3C(F)F)c2)C1=O [Compound 134],EC50,[2]; [4],18.5 nM
same,half-life at 1 uM,[3]; liver microsomes,≥ 6.58 h
CC(C)(C[C@]1(c2ccc(-c3cnn(C4CC4)n3)cc2)NC(=N)N([C@H](CNC(=O)CC(F)(F)F)c2ccc(Cl)c(-c3ncnn3C(F)F)c2)C1=O)C(F)(F)F [Compound 160],EC50,[2]; [4],12.6 nM
same,half-life at 1 uM,[3]; liver microsomes,≥ 6.58 h
C[C@H](NC(=O)OC[C@H](c1ccc(Cl)c(-n2ncnc2C(F)F)c1)N1C(=N)N[C@](CC(C)(C)C)(c2ccc(-c3cnn(C(F)F)c3)cc2)C1=O)C(F)F [Compound 344],EC50,[2]; [4],12.1 nM
same,half-life at 1 uM,[3]; liver microsomes,≥ 6.58 h
Cn1ccc(-c2ccc([C@@]3(CC(C)(C)C)NC(=N)N([C@H](COC(=O)NC4(C(F)(F)F)CC4)c4ccc(Cl)c(-n5ncnc5C(F)F)c4)C3=O)cc2F)n1 [Compound 289],EC50,[2]; [4],8.26 nM
same,half-life at 1 uM,[3]; liver microsomes,≥ 6.58 h

# — patent US10774053B2, “HIV protease inhibitors” (Gilead Sciences, Inc., priority 2017, dated 2020)
